# Peptide text beside a SMILES is read from it.
# Experiment: Thermal denaturation of trimeric coiled coil peptides by CD thermal scan (signal at 222 nm versus temperature, curve fitting)
# Type: physicochemical
# Details: core mutants at positions 3a and 3d of the reference peptide with glutamine at 2a; Figure 9
# Description: The said synthesized peptide was dissolved at a concentration of 292 microM in 20 mM phosphate buffer (PBS), 150 mM NaCl, pH 7.2. The CD spectra were measured between […], at 5 and 90 degrees Celsius (Figure 3). The spectrum at 5 degrees Celsius was indicative of a high alpha-helical secondary structure content, in agreement with the expectation that all heptad regions, but not all of the flanking residues, would assemble as alpha-helical coiled coils.
# To analyse whether the temperature-induced transition between helical and nonhelical states was reversible, a forward (up) and backward (down) thermal scan was performed on the same sample, by recording the CD signal at […] as a function of temperature at a scanning rate of about 1 degree Celsius per minute (Figure 4). It was observed that the up and down scans almost perfectly coincided, thereby confirming the quantitative unfolding and refolding of the peptides in the sample.
# It was further analyzed whether the thermal unfolding curve of Figure 4 conformed to the thermodynamic equations describing the equilibrium folding/unfolding reaction between three molecules free (monomeric) peptide and one entity of folded (trimeric) complex. This reaction is generally written as 3 peptide <=> peptide3 wherein "<=>" refers to a chemical equilibrium, "peptide" to a monomeric peptide in solution and "peptide3" to a trimeric entity in the folded (assembled, associated) state. This thermal unfolding curve was fitted to the theoretic equations: θ(T) = θM (T) + (θT(T)-θM(T))(1+root(F(-(1)/(2)+sqrt((1)/(4) + (F)/(27))), 3)+root(F(-(1)/(2)-sqrt((1)/(4) + (F)/(27))), 3)) [formula] wherein F = (exp(-(ΔHt)/(RT)(1-T/T1)-(ΔCp)/(RT)(T-Tt-Tln(T/Tt))))/(4) [formula] and T≡ the temperature, in degrees Kelvin, of the sample θ(T)≡ the CD-signal [theta]222 nm, in deg cm^2 dmol^-1, as a function of T θM(T)≡ the CD-signal for 100% free (monomeric) peptide as a function of T θT(T) ≡ the CD-signal for 100% associated (trimeric) peptide as a function of T Tt ≡ the transition temperature, where 50% of the total peptide concentration is associated ΔHt ≡ the enthalpy difference, in kJ per mole peptide, between mono- and trimeric states ΔCp ≡ the heat capacity difference, in J mol^-1 K^-1, between mono- and trimeric states R ≡ the ideal (universal) gas constant ≡ 8.31 J mol^-1 K^-1
# The global CD signal was somewhat lower than expected, which could be due to an instrumental deviation, an error in the concentration determination, a lower purity, or a lower than expected alpha-helical content. Nevertheless, the main goal of this experiment was to examine the effect of the glutamine-to-isoleucine mutant on the stability of the complex. […] The estimated transition temperature was around 97 degrees Celsius, although the latter was difficult to determine because of incompleteness of the transition.
# All ten peptides were analyzed by thermal CD scanning as in Examples 3 and 4. Fitting of the thermal denaturation curves, as described in Example 3, gave the corresponding transition temperatures shown in Figure 9. […]
row,effect of core substitution on stability (transition temperature) compared to the reference peptide comprising isoleucine at positions 3a and 3d,SMILES
1,disruptive,CC[C@H](C)[C@H](NC(=O)[C@H](C)NC(=O)[C@H](C)NC(=O)[C@H](CCC(N)=O)NC(=O)[C@H](CCC(N)=O)NC(=O)[C@H](CCCCN)NC(=O)[C@H](CCC(N)=O)NC(=O)[C@@H](NC(=O)[C@H](CCC(=O)O)NC(=O)[C@H](CCC(=O)O)NC(=O)[C@@H](NC(=O)[C@H](CO)NC(=O)[C@H](CCSC)NC(C)=O)[C@@H](C)CC)[C@@H](C)CC)C(=O)N[C@@H](CCC(N)=O)C(=O)N[C@@H](CCCCN)C(=O)N[C@@H](CCC(N)=O)C(=O)N[C@@H](C)C(=O)N[C@@H](C)C(=O)N[C@@H](C)C(=O)N[C@H](C(=O)N[C@@H](CCC(N)=O)C(=O)N[C@@H](CCCCN)C(=O)N[C@@H](CCC(N)=O)C(=O)N[C@H](C(=O)N[C@@H](Cc1ccc(O)cc1)C(=O)N[C@@H](CCCNC(=N)N)C(=O)N[C@@H](CCSC)C(=O)N[C@H](C(=O)N1CCC[C@H]1C(N)=O)[C@@H](C)O)[C@@H](C)CC)[C@@H](C)CC [3aA] (Ac-MSIEEIQKQQAAIQKQAAAIQKQIYRMTP-NH2)
2,slightly stabilizing effect,CC[C@H](C)[C@H](NC(=O)[C@H](C)NC(=O)[C@H](C)NC(=O)[C@H](CCC(N)=O)NC(=O)[C@H](CCC(N)=O)NC(=O)[C@H](CCCCN)NC(=O)[C@H](CCC(N)=O)NC(=O)[C@@H](NC(=O)[C@H](CCC(=O)O)NC(=O)[C@H](CCC(=O)O)NC(=O)[C@@H](NC(=O)[C@H](CO)NC(=O)[C@H](CCSC)NC(C)=O)[C@@H](C)CC)[C@@H](C)CC)C(=O)N[C@@H](CCC(N)=O)C(=O)N[C@@H](CCCCN)C(=O)N[C@@H](CCC(N)=O)C(=O)N[C@@H](CC(C)C)C(=O)N[C@@H](C)C(=O)N[C@@H](C)C(=O)N[C@H](C(=O)N[C@@H](CCC(N)=O)C(=O)N[C@@H](CCCCN)C(=O)N[C@@H](CCC(N)=O)C(=O)N[C@H](C(=O)N[C@@H](Cc1ccc(O)cc1)C(=O)N[C@@H](CCCNC(=N)N)C(=O)N[C@@H](CCSC)C(=O)N[C@H](C(=O)N1CCC[C@H]1C(N)=O)[C@@H](C)O)[C@@H](C)CC)[C@@H](C)CC [3aL] (Ac-MSIEEIQKQQAAIQKQLAAIQKQIYRMTP-NH2)
3,relatively strong,CC[C@H](C)[C@H](NC(=O)[C@H](C)NC(=O)[C@H](C)NC(=O)[C@H](CCC(N)=O)NC(=O)[C@H](CCC(N)=O)NC(=O)[C@H](CCCCN)NC(=O)[C@H](CCC(N)=O)NC(=O)[C@@H](NC(=O)[C@H](CCC(=O)O)NC(=O)[C@H](CCC(=O)O)NC(=O)[C@@H](NC(=O)[C@H](CO)NC(=O)[C@H](CCSC)NC(C)=O)[C@@H](C)CC)[C@@H](C)CC)C(=O)N[C@@H](CCC(N)=O)C(=O)N[C@@H](CCCCN)C(=O)N[C@@H](CCC(N)=O)C(=O)N[C@@H](CCC(N)=O)C(=O)N[C@@H](C)C(=O)N[C@@H](C)C(=O)N[C@H](C(=O)N[C@@H](CCC(N)=O)C(=O)N[C@@H](CCCCN)C(=O)N[C@@H](CCC(N)=O)C(=O)N[C@H](C(=O)N[C@@H](Cc1ccc(O)cc1)C(=O)N[C@@H](CCCNC(=N)N)C(=O)N[C@@H](CCSC)C(=O)N[C@H](C(=O)N1CCC[C@H]1C(N)=O)[C@@H](C)O)[C@@H](C)CC)[C@@H](C)CC [3aQ] (Ac-MSIEEIQKQQAAIQKQQAAIQKQIYRMTP-NH2)
4,disruptive,CC[C@H](C)[C@H](NC(=O)[C@H](C)NC(=O)[C@H](C)NC(=O)[C@H](CCC(N)=O)NC(=O)[C@H](CCC(N)=O)NC(=O)[C@H](CCCCN)NC(=O)[C@H](CCC(N)=O)NC(=O)[C@@H](NC(=O)[C@H](CCC(=O)O)NC(=O)[C@H](CCC(=O)O)NC(=O)[C@@H](NC(=O)[C@H](CO)NC(=O)[C@H](CCSC)NC(C)=O)[C@@H](C)CC)[C@@H](C)CC)C(=O)N[C@@H](CCC(N)=O)C(=O)N[C@@H](CCCCN)C(=O)N[C@@H](CCC(N)=O)C(=O)N[C@@H](CO)C(=O)N[C@@H](C)C(=O)N[C@@H](C)C(=O)N[C@H](C(=O)N[C@@H](CCC(N)=O)C(=O)N[C@@H](CCCCN)C(=O)N[C@@H](CCC(N)=O)C(=O)N[C@H](C(=O)N[C@@H](Cc1ccc(O)cc1)C(=O)N[C@@H](CCCNC(=N)N)C(=O)N[C@@H](CCSC)C(=O)N[C@H](C(=O)N1CCC[C@H]1C(N)=O)[C@@H](C)O)[C@@H](C)CC)[C@@H](C)CC [3aS] (Ac-MSIEEIQKQQAAIQKQSAAIQKQIYRMTP-NH2)
5,moderately,CC[C@H](C)[C@H](NC(=O)[C@H](C)NC(=O)[C@H](C)NC(=O)[C@H](CCC(N)=O)NC(=O)[C@H](CCC(N)=O)NC(=O)[C@H](CCCCN)NC(=O)[C@H](CCC(N)=O)NC(=O)[C@@H](NC(=O)[C@H](CCC(=O)O)NC(=O)[C@H](CCC(=O)O)NC(=O)[C@@H](NC(=O)[C@H](CO)NC(=O)[C@H](CCSC)NC(C)=O)[C@@H](C)CC)[C@@H](C)CC)C(=O)N[C@@H](CCC(N)=O)C(=O)N[C@@H](CCCCN)C(=O)N[C@@H](CCC(N)=O)C(=O)N[C@H](C(=O)N[C@@H](C)C(=O)N[C@@H](C)C(=O)N[C@H](C(=O)N[C@@H](CCC(N)=O)C(=O)N[C@@H](CCCCN)C(=O)N[C@@H](CCC(N)=O)C(=O)N[C@H](C(=O)N[C@@H](Cc1ccc(O)cc1)C(=O)N[C@@H](CCCNC(=N)N)C(=O)N[C@@H](CCSC)C(=O)N[C@H](C(=O)N1CCC[C@H]1C(N)=O)[C@@H](C)O)[C@@H](C)CC)[C@@H](C)CC)C(C)C [3aV] (Ac-MSIEEIQKQQAAIQKQVAAIQKQIYRMTP-NH2)
6,relatively strong,CC[C@H](C)[C@H](NC(=O)[C@H](C)NC(=O)[C@H](C)NC(=O)[C@H](CCC(N)=O)NC(=O)[C@H](CCC(N)=O)NC(=O)[C@H](CCCCN)NC(=O)[C@H](CCC(N)=O)NC(=O)[C@@H](NC(=O)[C@H](CCC(=O)O)NC(=O)[C@H](CCC(=O)O)NC(=O)[C@@H](NC(=O)[C@H](CO)NC(=O)[C@H](CCSC)NC(C)=O)[C@@H](C)CC)[C@@H](C)CC)C(=O)N[C@@H](CCC(N)=O)C(=O)N[C@@H](CCCCN)C(=O)N[C@@H](CCC(N)=O)C(=O)N[C@H](C(=O)N[C@@H](C)C(=O)N[C@@H](C)C(=O)N[C@@H](C)C(=O)N[C@@H](CCC(N)=O)C(=O)N[C@@H](CCCCN)C(=O)N[C@@H](CCC(N)=O)C(=O)N[C@H](C(=O)N[C@@H](Cc1ccc(O)cc1)C(=O)N[C@@H](CCCNC(=N)N)C(=O)N[C@@H](CCSC)C(=O)N[C@H](C(=O)N1CCC[C@H]1C(N)=O)[C@@H](C)O)[C@@H](C)CC)[C@@H](C)CC [3dA] (Ac-MSIEEIQKQQAAIQKQIAAAQKQIYRMTP-NH2)
7,slightly stabilizing effect,CC[C@H](C)[C@H](NC(=O)[C@H](C)NC(=O)[C@H](C)NC(=O)[C@H](CCC(N)=O)NC(=O)[C@H](CCC(N)=O)NC(=O)[C@H](CCCCN)NC(=O)[C@H](CCC(N)=O)NC(=O)[C@@H](NC(=O)[C@H](CCC(=O)O)NC(=O)[C@H](CCC(=O)O)NC(=O)[C@@H](NC(=O)[C@H](CO)NC(=O)[C@H](CCSC)NC(C)=O)[C@@H](C)CC)[C@@H](C)CC)C(=O)N[C@@H](CCC(N)=O)C(=O)N[C@@H](CCCCN)C(=O)N[C@@H](CCC(N)=O)C(=O)N[C@H](C(=O)N[C@@H](C)C(=O)N[C@@H](C)C(=O)N[C@@H](CC(C)C)C(=O)N[C@@H](CCC(N)=O)C(=O)N[C@@H](CCCCN)C(=O)N[C@@H](CCC(N)=O)C(=O)N[C@H](C(=O)N[C@@H](Cc1ccc(O)cc1)C(=O)N[C@@H](CCCNC(=N)N)C(=O)N[C@@H](CCSC)C(=O)N[C@H](C(=O)N1CCC[C@H]1C(N)=O)[C@@H](C)O)[C@@H](C)CC)[C@@H](C)CC [3dL] (Ac-MSIEEIQKQQAAIQKQIAALQKQIYRMTP-NH2)

# Reference: patent EP2161278B1, “Single-chain coiled coil scaffold” (Complix N.V., priority 2008, dated 2010)
